Converted amounts (≈) assume the structure as drawn. Where two headings read alike, the source gives them in different places.
Legend:
A. baumannii ATCC19606 = system: A. baumannii ATCC19606
Method: (§1) Antimicrobial activity was determined for all peptides on E. coli W3110, P. aeruginosa PAO1, A. baumannii ATCC19606, K. pneumoniae NCTC418, and methicillin-resistant S. aureus COL and for selected peptides on P. aeruginosa PA14 and the polymyxin B-resistant derivatives PA14 4.13, PA14 4.18, and PA14 2P4 as well as the clinical isolates ZEM-1A and ZEM9A, K. pneumoniae OXA-48, Enterobacter cloacae, Stenotrophomonas maltophilia, B. cenocepacia, and Staphylococus epidermis. To determine the MIC, the broth microdilution method was used.[75] A single bacterial colony was grown in LB medium overnight at 37 °C and 180 rpm shaking. The compounds were prepared as stock solutions of 2 mg/mL in sterilized milliQ deionized water, added to the first well of 96-well sterile, polypropylene round-bottom microtiter plates (TPP, untreated, Corning Incorporated, Kennebunk, USA), and diluted serially by 1/2. […] The bacterial inoculum was prepared by measuring the absorbance of the overnight culture, which was diluted to concentration of the bacteria was quantified by measuring absorbance at 600 nm and diluted to an OD600 of 0.022 in MH medium pH 7.4 (Sigma-Aldrich, Buchs, Switzerland). The sample solutions (150 μL) were mixed with 4 μL of diluted bacterial suspension with a final inoculation of about 5 × 10^5 CFU. For each test, two columns of the plate were kept for sterility control (MH medium only) and growth control (MH medium with bacterial inoculum, no compound). […] The plates were incubated at 37 °C for 16–20 h under static conditions. 15 μL of 3-(4,5-dimethylthiazol-2-yl)-2,5-diphenyltetrazolium bromide (MTT)[76] (1 mg/mL in sterilized milliQ deionized water) was added to each well, and the plates were incubated at room temperature until MTT staining was completed. The MIC was defined as the lowest concentration of the dendrimer that inhibits the visible growth of the tested bacteria (yellow) with the unaided eye.

S. aureus COL MRSA = details: for MIC S. aureus COL MRSA: MH broth pH 7.4, 16–20 h, 37 °C; for MIC S. aureus COL: supplementary CSV, ranges of Table 1 given as one number
Method: as §1

E. coli W3110 = system: E. coli W3110
Method: as §1

P. aeruginosa PAO1 = system: P. aeruginosa PAO1
Method: as §1

K. pneumoniae NCTC418 = system: K. pneumoniae NCTC418
Method: as §1

[1] = MH broth pH 7.4, 16–20 h, 37 °C
[2] = supplementary CSV, ranges of Table 1 given as one number

| Structure (SMILES) | MIC A. baumannii ATCC19606 (A. baumannii ATCC19606; [1]) | MIC A. baumannii ATCC19606 (A. baumannii ATCC19606; [2]) | MIC S. aureus COL MRSA (S. aureus COL MRSA) | MIC S. aureus COL (S. aureus COL MRSA) | MIC E. coli W3110 (E. coli W3110; [1]) | MIC E. coli W3110 (E. coli W3110; [2]) | MIC P. aeruginosa PAO1 (P. aeruginosa PAO1; [1]) | MIC P. aeruginosa PAO1 (P. aeruginosa PAO1; [2]) | MIC K. pneumoniae NCTC418 (K. pneumoniae NCTC418; [1]) | MIC K. pneumoniae NCTC418 (K. pneumoniae NCTC418; [2]) |
| --- | --- | --- | --- | --- | --- | --- | --- | --- | --- | --- |
| CC(C)C[C@H](NC(=O)[C@H](CC(C)C)NC(=O)[C@H](CC(C)C)NC(=O)[C@H](CCCCN)NC(=O)[C@H](CC(C)C)NC(=O)[C@@H](CC(C)C)NC(=O)[C@H](CCCCN)NC(=O)[C@@H](CC(C)C)NC(=O)[C@@H](CC(C)C)NC(=O)[C@@H](CCCCN)NC(=O)[C@@H](N)CCCCN)C(N)=O [HP12, KkllKlLKLLL] | 8 µg/mL (≈ 6.05 µM) | 8 µg/mL (≈ 6.05 µM) | 4 µg/mL (≈ 3.03 µM) | 4 µg/mL (≈ 3.03 µM) | 2 to 4 µg/mL | 3 µg/mL (≈ 2.27 µM) | 4 to 8 µg/mL | 6 µg/mL (≈ 4.54 µM) | 8 to 16 µg/mL |  |
| CC(C)C[C@H](NC(=O)[C@@H](CC(C)C)NC(=O)[C@H](CCCCN)NC(=O)[C@@H](CC(C)C)NC(=O)[C@H](CC(C)C)NC(=O)[C@@H](CCCCN)NC(=O)[C@H](CC(C)C)NC(=O)[C@@H](CC(C)C)NC(=O)[C@H](CCCCN)NC(=O)[C@H](N)CCCCN)C(=O)N[C@H](CC(C)C)C(N)=O [HP31, kKlLkLlKlLl] | 32 µg/mL (≈ 24.2 µM) | 32 µg/mL (≈ 24.2 µM) | 32 µg/mL (≈ 24.2 µM) | 32 µg/mL (≈ 24.2 µM) | 8 µg/mL (≈ 6.05 µM) |  | 8 µg/mL (≈ 6.05 µM) | 8 µg/mL (≈ 6.05 µM) | >64 µg/mL |  |
| CC(C)CC(NC(=O)C(CC(C)C)NC(=O)C(CC(C)C)NC(=O)C(CCCCN)NC(=O)C(CC(C)C)NC(=O)C(CC(C)C)NC(=O)C(CCCCN)NC(=O)C(CC(C)C)NC(=O)C(CC(C)C)NC(=O)C(CCCCN)NC(=O)C(N)CCCCN)C(N)=O (racemic) [sr-ln65] | 4 µg/mL (≈ 3.03 µM) |  | 8 µg/mL (≈ 6.05 µM) |  | 4 µg/mL (≈ 3.03 µM) |  | 4 µg/mL (≈ 3.03 µM) |  | 16 to 32 µg/mL |  |
| CC(C)C[C@H](NC(=O)[C@@H](CC(C)C)NC(=O)[C@@H](CC(C)C)NC(=O)[C@H](CCCCN)NC(=O)[C@H](CC(C)C)NC(=O)[C@H](CC(C)C)NC(=O)[C@H](CCCCN)NC(=O)[C@H](CC(C)C)NC(=O)[C@@H](CC(C)C)NC(=O)[C@@H](CCCCN)NC(=O)[C@@H](N)CCCCN)C(N)=O [HP17, KklLKLLKllL] | 32 µg/mL (≈ 24.2 µM) | 32 µg/mL (≈ 24.2 µM) | 32 to 64 µg/mL | 48 µg/mL (≈ 36.3 µM) | 8 µg/mL (≈ 6.05 µM) |  | 16 µg/mL (≈ 12.1 µM) | 16 µg/mL (≈ 12.1 µM) | 32 to 64 µg/mL | 48 µg/mL (≈ 36.3 µM) |
| CC(C)C[C@@H](NC(=O)[C@@H](CC(C)C)NC(=O)[C@@H](CC(C)C)NC(=O)[C@@H](CCCCN)NC(=O)[C@@H](CC(C)C)NC(=O)[C@@H](CC(C)C)NC(=O)[C@@H](CCCCN)NC(=O)[C@@H](CC(C)C)NC(=O)[C@@H](CC(C)C)NC(=O)[C@@H](CCCCN)NC(=O)[C@H](N)CCCCN)C(N)=O [dln65, kkllkllklll] | 4 µg/mL (≈ 3.03 µM) | 4 µg/mL (≈ 3.03 µM) | 2 to 4 µg/mL | 3 µg/mL (≈ 2.27 µM) | 2 to 4 µg/mL | 3 µg/mL (≈ 2.27 µM) | 2 to 4 µg/mL | 3 µg/mL (≈ 2.27 µM) | 4 µg/mL (≈ 3.03 µM) | 4 µg/mL (≈ 3.03 µM) |
| CC(C)C[C@H](NC(=O)[C@H](CC(C)C)NC(=O)[C@@H](CCCCN)NC(=O)[C@H](CC(C)C)NC(=O)[C@H](CC(C)C)NC(=O)[C@@H](CCCCN)NC(=O)[C@@H](CC(C)C)NC(=O)[C@H](CC(C)C)NC(=O)[C@H](CCCCN)NC(=O)[C@@H](N)CCCCN)C(=O)N[C@H](CC(C)C)C(N)=O [HP23, KKLlkLLkLLl] |  |  | 32 µg/mL (≈ 24.2 µM) | 32 µg/mL (≈ 24.2 µM) | 2 µg/mL (≈ 1.51 µM) |  | 4 to 8 µg/mL | 6 µg/mL (≈ 4.54 µM) | >64 µg/mL |  |

— PMC10258794, “To Fold or Not to Fold: Diastereomeric Optimization of an α-Helical Antimicrobial Peptide” (Journal of Medicinal Chemistry, 2023)
